# Experimental data published in ChEMBL document CHEMBL1201862, “PubChem BioAssay data set” (2004).
# Active and inactive are the calls of the source.
# How the values were obtained:
# [1] = HepG2 cell cytotoxicity, dose response, cytotoxicity control, ATP luminescence, cherry-pick, activator set 2 (AID 1053143); assay type: functional, cell-based
# INS1 = test: beta cell apoptosis inhibitors, cytokine rescue, dose response, luminescence, retest (AID 449756); assay type: functional, cell-based; settings: Rattus norvegicus;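 also: cell death triggered by IL-1 beta plus TNF-alpha plus IFN-gamma mixture; protective hits raise ATP signal compared with cytokine alone wells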
# Aminopeptidase N = target: T1, Aminopeptidase N (Plasmodium falciparum FcB1/Columbia, UniProt O96935); test: P. falciparum M1AAP inhibitors, biochemical, fluorogenic H-Leu-NHMec substrate, 1536-well (AID 1445); parameters: species or system Plasmodium falciparum 3D7, 3D7
# T1 sequence (O96935 whole entry): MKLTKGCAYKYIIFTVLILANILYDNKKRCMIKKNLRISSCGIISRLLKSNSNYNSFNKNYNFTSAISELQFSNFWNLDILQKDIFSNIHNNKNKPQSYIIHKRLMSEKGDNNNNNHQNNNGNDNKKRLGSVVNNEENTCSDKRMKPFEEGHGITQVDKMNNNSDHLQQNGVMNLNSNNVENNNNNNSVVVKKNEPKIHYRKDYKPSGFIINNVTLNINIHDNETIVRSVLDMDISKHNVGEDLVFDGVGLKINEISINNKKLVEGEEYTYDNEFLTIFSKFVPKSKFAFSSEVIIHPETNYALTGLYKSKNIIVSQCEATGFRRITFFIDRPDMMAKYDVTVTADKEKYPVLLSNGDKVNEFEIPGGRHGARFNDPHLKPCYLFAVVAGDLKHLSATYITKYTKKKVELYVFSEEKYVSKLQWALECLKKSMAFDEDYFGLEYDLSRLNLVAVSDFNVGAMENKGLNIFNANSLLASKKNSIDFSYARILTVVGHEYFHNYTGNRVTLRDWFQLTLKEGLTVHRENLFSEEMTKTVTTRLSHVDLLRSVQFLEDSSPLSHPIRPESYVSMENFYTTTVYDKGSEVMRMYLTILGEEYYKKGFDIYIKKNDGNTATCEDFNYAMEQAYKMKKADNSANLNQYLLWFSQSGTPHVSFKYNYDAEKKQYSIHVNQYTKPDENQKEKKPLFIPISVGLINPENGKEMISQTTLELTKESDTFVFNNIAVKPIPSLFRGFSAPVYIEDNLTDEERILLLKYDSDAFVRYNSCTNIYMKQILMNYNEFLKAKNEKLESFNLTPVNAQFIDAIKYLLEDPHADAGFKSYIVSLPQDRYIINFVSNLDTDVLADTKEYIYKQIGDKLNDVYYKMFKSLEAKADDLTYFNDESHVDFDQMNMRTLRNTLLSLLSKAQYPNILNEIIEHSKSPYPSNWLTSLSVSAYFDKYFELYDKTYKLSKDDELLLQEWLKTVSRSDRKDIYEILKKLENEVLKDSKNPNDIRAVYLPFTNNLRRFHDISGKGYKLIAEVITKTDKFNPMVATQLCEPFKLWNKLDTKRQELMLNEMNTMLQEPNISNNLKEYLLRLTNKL
# [2] = NIH-3T3 fibroblast cytotoxicity, dose response, cytotoxicity control, cell-based, fluorescence, Alamar Blue, secondary assay (AID 2327); assay type: functional;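 also: NIH-3T3 mouse fibroblasts cultured with fluconazole at 8 µg/mL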
# [3] = C. albicans growth with fluconazole, confirmation, fluorescence, retest (AID 2467); assay type: functional, cell-based
# HEK293 [4] = test: NOD2 signaling inhibitors in MDP-stimulated cells, cell-based, uHTS, luminescence (AID 2001); assay type: functional; settings: Homo sapiens
# [5] = HEK293T cytotoxicity, dose response, cytotoxicity control for miR-122 modulator project, cell-based, activator set, cherry-pick (AID 720690); assay type: functional;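 also: HEK293T human cells scored for general mammalian cytotoxicity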
# [6] = inhibitors of clade B AD8 Env fusion, dose response, cell-based, cherry-pick (AID 652062); assay type: functional;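 also: luciferase signal from cell-cell fusion driven by HIV-1 clade B AD8 Env; potency is for inhibitors of fusion seen as a drop in luminescence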
# [7] = inhibitors of HIV Env-driven cell fusion, dose response, cherry-pick (AID 652057); assay type: functional, cell-based
# [8] = CEM21 lymphoblast cell cytotoxicity, dose response, cytotoxicity control for viral fusion inhibitor project, CellTiter-Glo luminescence, cherry-picked (AID 652042); assay type: functional, cell-based;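 also: potency for signal decrease meaning cytotoxicity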
# Streptokinase A = target: T2, Streptokinase A (Streptococcus pyogenes serotype M1, UniProt P10520); test: S. pyogenes streptokinase expression inhibitors, potency, dose response, plasminogen activation absorbance, OD405 (AID 1914); assay type: functional, Streptococcus pyogenes M1 GAS;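 also: secreted streptokinase activity via plasminogen activation per viability signal from cell pellet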
# T2 sequence (P10520 whole entry): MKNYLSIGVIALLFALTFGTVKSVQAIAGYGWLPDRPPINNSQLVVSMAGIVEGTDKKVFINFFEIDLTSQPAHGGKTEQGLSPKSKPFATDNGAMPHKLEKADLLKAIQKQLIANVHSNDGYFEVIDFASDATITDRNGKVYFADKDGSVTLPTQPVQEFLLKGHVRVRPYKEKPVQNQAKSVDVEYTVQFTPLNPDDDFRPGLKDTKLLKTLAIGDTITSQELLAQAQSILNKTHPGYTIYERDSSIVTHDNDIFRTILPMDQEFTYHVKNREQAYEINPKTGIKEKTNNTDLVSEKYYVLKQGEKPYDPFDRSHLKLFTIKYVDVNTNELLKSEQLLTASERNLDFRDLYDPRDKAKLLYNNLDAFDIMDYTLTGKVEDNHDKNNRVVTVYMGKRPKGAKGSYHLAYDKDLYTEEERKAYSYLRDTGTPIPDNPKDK
# [9] = miR-122 activators in hepatoma reporter cells, dose response, cell-based, Huh7 psiCHECK-miR122, Renilla luciferase, cherry-picked (AID 651956); assay type: functional;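 also: huh7 hepatoma cells stably carrying a psiCHECK-2 miR-122 sensor plasmid; renilla luciferase signal reporting endogenous miR-122 activity after 48 h compound exposure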
# HEK293 [10] = test: NOD1 signaling inhibitors, primary screen, cell-based, luminescence, uHTS (AID 1578); assay type: functional; settings: Homo sapiens
# HEK293 [11] = test: cells; assay type: functional, cell-based; settings: Homo sapiens
# Streptococcus = test: Group A Streptococcus viability loss, dose response, counter-screen for streptokinase expression inhibitor project, luminescence, BacTiterGlo (AID 1915); assay type: functional, organism-based;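 also: potency for reduction of bacterial viability or growth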
# HEK293 [12] = test: cells; assay type: functional, cell-based; settings: Homo sapiens; remark: listed apart in the source
# [13] = HEK293T cytotoxicity, dose response, cytotoxicity control for miR-122 modulator project, cell-based, inhibitor set, cherry-pick, set 2 (AID 720697); assay type: functional
# [14] = system: Streptococcus sp. 'group A'; test: growth inhibition of control SK(-) GAS strain, dose response, counter-screen for streptokinase expression inhibitor project, luminescence, kanamycin, BacTiterGlo, confirmation (AID 1900); assay type: functional, organism-based; settings: read-out: EC50
# [15] = ZM109 Env clade C HIV-1 fusion inhibitors, dose response, HeLa effector, CEM target cells, luciferase, cherry-pick (AID 652058); assay type: functional, cell-based
# [16] = off-target signal loss in HeLa-CEM21 co-culture – HeLa F-luc CTL cells, cherry-picked, counter-screen for HIV-1 Env fusion inhibitor project, dose response (AID 652040); assay type: functional, cell-based;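 also: potency for signal decrease marking cytotoxic or nonspecific inhibition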
# [17] = HepG2 cell cytotoxicity, dose response, cytotoxicity control for Shn3 inhibitor project, CellTiter-Glo, cherry-picked (AID 624134); assay type: functional, cell-based
# [18] = MC4R antagonists, dose response, counter-screen for LGR2 antagonist project, cell-based, plate reader, cherry pick (AID 743444); assay type: functional;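 also: transfected HEK 293 cells stimulated with alpha-MSH peptide; potency of inhibitors of the alpha-MSH evoked signal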
# [19] = HepG2 cell cytotoxicity, dose response, cytotoxicity control, plate reader, cherry-pick, antagonist series (AID 743416); assay type: functional, cell-based
# [20] = non-specific cell cytotoxicity, dose response, cytotoxicity control for PAX8 inhibitor project, plate reader, dry powder samples (AID 743021); assay type: functional, cell-based
# Paired box protein Pax-8 = Paired box protein Pax-8 (Homo sapiens, UniProt Q06710); test: inhibitors of PAX8-driven TPO luciferase reporter, dose response, RMG-I cells, cherry-pick (AID 687027); assay type: functional, cell-based;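 also: luciferase reporter driven by Pax8 target thyroperoxidase promoter measured by SteadyGlo luminescence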
# Chain of Paired box protein Pax-8 (Q06710 whole entry): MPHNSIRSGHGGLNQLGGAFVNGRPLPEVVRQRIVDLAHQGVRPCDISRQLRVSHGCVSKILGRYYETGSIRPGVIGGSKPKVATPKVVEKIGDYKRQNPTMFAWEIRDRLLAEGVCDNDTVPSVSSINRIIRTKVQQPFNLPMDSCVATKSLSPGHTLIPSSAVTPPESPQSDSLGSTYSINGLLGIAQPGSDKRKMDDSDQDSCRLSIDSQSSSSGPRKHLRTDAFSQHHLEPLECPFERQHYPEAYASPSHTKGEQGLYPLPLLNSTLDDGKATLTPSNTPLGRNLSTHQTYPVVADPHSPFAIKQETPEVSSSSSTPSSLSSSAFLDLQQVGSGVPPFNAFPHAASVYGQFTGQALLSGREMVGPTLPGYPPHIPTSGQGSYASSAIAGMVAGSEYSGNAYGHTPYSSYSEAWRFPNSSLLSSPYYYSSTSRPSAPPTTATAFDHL
# [21] = target: T3, Heat shock factor protein 1 (Mus musculus, UniProt P38532); test: inhibition of MG132-induced HSE-luciferase signal, confirmation, cell-based, NIH3T3, luminescence, dose retest (AID 2382); assay type: functional;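 also: NIH3T3 fibroblasts with HSF1-driven luciferase reporter stressed by proteasome inhibitor MG132; luminescence from HSF1-driven luciferase expression after 8 hours of MG132 stress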
# T3 sequence (P38532 whole entry): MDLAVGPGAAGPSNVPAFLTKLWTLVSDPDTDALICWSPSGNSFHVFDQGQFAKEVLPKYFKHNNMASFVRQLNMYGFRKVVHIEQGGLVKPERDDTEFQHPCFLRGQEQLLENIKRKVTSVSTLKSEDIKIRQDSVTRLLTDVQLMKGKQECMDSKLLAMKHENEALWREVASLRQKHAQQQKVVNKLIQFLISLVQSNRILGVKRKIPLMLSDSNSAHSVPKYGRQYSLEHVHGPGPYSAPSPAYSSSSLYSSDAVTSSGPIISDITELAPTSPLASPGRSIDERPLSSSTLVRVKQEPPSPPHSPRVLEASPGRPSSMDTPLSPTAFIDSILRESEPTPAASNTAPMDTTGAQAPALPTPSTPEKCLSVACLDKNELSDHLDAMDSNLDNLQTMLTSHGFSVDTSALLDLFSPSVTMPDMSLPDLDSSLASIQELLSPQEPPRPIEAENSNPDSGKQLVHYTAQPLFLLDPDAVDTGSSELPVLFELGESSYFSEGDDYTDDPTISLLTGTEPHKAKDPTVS
# [22] = HEK293 cell cytotoxicity, dose response, cytotoxicity control, plate reader, cherry-picked samples (AID 743446); assay type: functional, cell-based
# [23] = control 3'UTR Renilla luciferase suppression, dose response, counter-screen for Shn3 inhibitor project, cell-based, Clone20-Shn3RL, cherry-picked (AID 624133); assay type: functional
# [24] = LGR2 antagonists, dose response, cell-based, HEK293, CRE-luciferase reporter, cherry pick, set 2 (AID 743343); assay type: functional;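 also: transfected cells were stimulated with diluted bursicon conditioned medium after compound addition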
# [25] = Luminescence Cell-Based Dose Retest to Confirm Inhibitors of Cancer Stem Cells. [Related pubchem assays (depositor defined):AID2717, AID2721]; assay type: functional, Homo sapiens; settings: Homo sapiens
# [26] = A549 cell cytotoxicity, dose response, cytotoxicity control, plate reader, cherry-pick, antagonist series (AID 743412); assay type: functional, cell-based
# [27] = target: T4, Microphthalmia-associated transcription factor (Homo sapiens, UniProt O75030); test: TRPM1 promoter luciferase signal decrease, dose response, MITF inhibitor project, cell-based, SK-MEL-5, cherry-picked, set 3 (AID 493073); assay type: functional
# T4 sequence (O75030 whole entry): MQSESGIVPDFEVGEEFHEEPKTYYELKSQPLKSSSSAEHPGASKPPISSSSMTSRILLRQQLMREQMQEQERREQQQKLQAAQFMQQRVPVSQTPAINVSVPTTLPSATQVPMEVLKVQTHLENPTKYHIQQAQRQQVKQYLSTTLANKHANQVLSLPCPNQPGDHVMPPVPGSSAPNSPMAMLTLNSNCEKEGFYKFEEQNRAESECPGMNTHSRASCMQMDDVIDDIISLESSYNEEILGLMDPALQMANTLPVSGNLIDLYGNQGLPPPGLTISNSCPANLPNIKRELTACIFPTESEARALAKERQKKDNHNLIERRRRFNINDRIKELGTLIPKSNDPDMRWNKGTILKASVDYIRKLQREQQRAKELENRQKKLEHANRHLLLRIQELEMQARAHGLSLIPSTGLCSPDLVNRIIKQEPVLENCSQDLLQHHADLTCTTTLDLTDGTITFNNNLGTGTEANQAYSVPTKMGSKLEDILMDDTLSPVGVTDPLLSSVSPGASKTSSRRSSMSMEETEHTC
# [28] = Shn3 3'UTR reporter inhibitors, dose response, cell-based, Clone20 osteoblasts, firefly luciferase, cherry-picked (AID 624132); assay type: functional;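 also: firefly luciferase luminescence from reporter carrying the Shn3 3'UTR in osteoblasts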
# [29] = Artemis endonuclease inhibitor potency, dose response, biochemical, fluorescence intensity (AID 720701); assay type: functional;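 also: Artemis endonuclease enzyme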
# [30] = Luminescence-based cell-based high throughput dose response assay to identify activators of the DAF-12 from the parasite S. stercoralis (ssDAF-12).; assay type: functional
smiles,measurement,setting,value
O=C(Oc1c(CN2CCOCC2)cc(Cl)c2cccnc12)c1cccs1,AC50,[1],26 µM (active)
same,AC50,INS1,4.67 µM (active)
same,IC50,Aminopeptidase N,72.3 µM (active)
same,EC50,[2],> 160 µM (inactive)
same,EC50,[3],2.63 µM (active)
O=C(Nc1ccc(OC(F)F)cc1)Nc1cccc(C(F)(F)F)c1,IC50,HEK293 [4],4.14 µM (inactive)
same,AC50,[5],6.99 µM (active)
same,AC50,[6],11 µM (active)
same,AC50,[7],5.03 µM (active)
same,AC50,[8],16.1 µM (active)
same,EC50,Streptokinase A,> 150 µM (not active)
same,AC50,[9],32 µM (active)
same,EC50,HEK293 [10],8.15 µM (active)
same,AC50,INS1,6.07 µM (active)
same,IC50,HEK293 [11],3.04 µM (active)
same,EC50,Streptococcus,44.9 µM (active)
same,IC50,HEK293 [12],6.17 µM (active)
same,AC50,[13],10.9 µM (active)
same,EC50,[14],13.3 µM (active)
same,AC50,[15],5.35 µM (active)
same,AC50,[16],10.5 µM (active)
O=C(Nc1ccc2nc3n(c(=O)c2c1)CCCCC3)c1cc([N+](=O)[O-])ccc1F,AC50,[17],42.2 µM (active)
same,AC50,[18],11.5 µM (active)
same,AC50,[19],18.3 µM (active)
same,AC50,[20],42.6 µM (active)
same,AC50,Paired box protein Pax-8,14.3 µM (active)
same,EC50,[21],> 195 µM (not active)
same,AC50,[22],14.7 µM (active)
same,AC50,[23],9.99 µM (active)
same,AC50,[24],6.52 µM (active)
same,AC50,[25],5.51 µM (active)
same,AC50,[26],17.5 µM (active)
same,AC50,[27],10.7 µM (active)
same,AC50,[28],14.1 µM (active)
CCN1CCc2nc(NC(=O)C(c3ccccc3)c3ccccc3)sc2C1,IC50,[29],> 20 µM (inactive)
CC(C)(C)C1CCC(=NN=C(S)Nc2cccnc2)CC1 (configuration not stated),IC50,[30],> 67.5 µM (inactive)
COc1cccc(OC)c1-c1nn2c(-c3cc(-c4ccccc4)[nH]n3)nnc2s1,IC50,[29],1.96 µM (active)
